The text below walks through data of US20140057884A1, “PHARMACEUTICAL COMPOSITION FOR PREVENTING OR TREATING LIVER CANCER COMPRISING STIGMASTEROL AND 5 BETA-HYDROXYSITOSTANOL ISOLATED FROM NAVICULA INCERTA” (PUKYONG NATIONAL UNIVERSITY INDUSTRY-UNIVERSITY CO, priority 2012, published 2014).

Common to all, as to format: cell-based, human
Data set [1] has as its system HepG2 cells. Nature of the data set: Cell cycle analysis (PI staining, FACS). As to conditions: for G2/M phase of the cell cycle as the concentration increased: HepG2 cells, 5, 10, 20 μM; for G2/M phase of the cell cycle: HepG2 cells, highest concentration (20 μM). The procedure: The HepG2 cells were cultured in 6 cm^2 dishes treated with different concentrations (5 μM, 10 μM, 20 μM) of stigmasterol and 5β-hydroxysitostanol. The cells were stained with propidium iodide (PI), and the cell cycle was analyzed by measuring the amount of DNA with FACS.

The subject of data set [2] is HepG2 cells. Nature of the data set: Observation of morphological changes of the cells (light microscope; fluorescence microscope after Hoechst 33342 staining). The conditions noted are these: 24 h; for shape of the attached HepG2 cells / number of attached cells (living cells): light microscope; for nuclei of the attached HepG2 cells: increasing concentrations (5, 10, 20 μM), Hoechst 33342, fluorescence microscope; for number of attached cells (living cells): increasing doses. As for the experimental part:
HepG2 ells were grown in 12-well plates at a density of 2×10^4 cells/well. After overnight incubation, cells were treated with different concentrations ([…], 20 μM) of stigmasterol and 5β-hydroxysitostanol and incubated for another 24 h. The cells were washed with PBS. After washing, 4% (v/v) formaldehyde solution was dissolved in PBS and added to the plate, and left for 1 h at room temperature. The fixed cells were detected by a light microscope.
Further, the HepG2 cells were grown in 12-well plates at a density of 2×10^4 cells/well. After overnight incubation, cells were treated with different concentrations (5 μM, 10 μM, 20 μM) of stigmasterol and 5β-hydroxysitostanol and incubated for another 24 h. The cells were then washed with PBS. After washing, 4% (v/v) formaldehyde solution was dissolved in PBS and added to the plate, and left for 1 h at room temperature so that cells were fixated. The fixed cells were stained with staining dye, Bisbenzimide Hoechst 33342 and left for 1 h at room temperature. The stained cells were observed under fluorescence microscope.

The next data set is described as follows: MTT cell viability assay. The conditions noted are these: human. As for the experimental part: (§1) Cell viability was measured using MTT [3-(4,5-dimethylthiazol-2-yl)-2,5-diphenyltetrazolium bromide] assay utilizing […] MTT is reduced to purple formazan by the action of mitochondrial dehydrogenase which has viability only in living cells.
(§2) The HepG2 cells were grown in 96-well plates at a density of 2×10^4 cells/well. After 24 h, cells were treated with different concentrations ([…], 20 μM) of stigmasterol and 5β-hydroxysitostanol. After incubation for 24 h, the cells were incubated with 100 μL of MTT (1 mg/mL) for 4 h. Finally, DMSO was added so that the amount of formazan crystal was determined by measuring the absorbance at 550 nm using a multidetection microplate reader.

Data set [3] relates to HepG2 cells. Description: MTT cell viability assay. As to conditions: for cell viability with increasing concentrations: HepG2 cells, 5-20 μM, 24 h. The procedure: as §1, §2
In general terms: Tetrazolium assays rely on reduction of a dye to a coloured formazan, in cell work by metabolically active cells.

Data set [4] has as its system HepG2 cells. Nature of the data set: RT-PCR analysis of mRNA expression of apoptosis-related genes. As for the experimental part:
HepG2 cells treated with stigmasterol and 5β-hydroxysitostanol were treated with TRIzol® reagent were transferred to microtubes at each concentration. 200 μl, of chloroform was added to each tube and microtubes were centrifuged at 12,000×g for 15 min. After centrifugation, supernatant phase was transferred to a new microtube and mixed with isopropanol at the ratio of 1:1. After incubation for 10 min at room temperature and centrifugation at 12,000×g for 10 min, supernatant was discarded and RNA pellet was washed, followed by centrifugation at 12,000×g for 15 min. Following removal of ethanol, RNA pellet was suspended in DEPC-treated water and so that RNA pellet was dissolved at 55° C. for 10 min. Dissolved RNA pellet was kept at −20° C. for further experiments.
RT-PCR was performed to check specific mRNA expression in HepG2 cells.
Thirteen μg of RNA dissolved in DEPC— treated water and 2 μL of oligo (di) were added to PCR microtubes and denaturated at 70° C. for 5 min in a thermal cycler. Later, RT-PCR mastermix was added to microtubes to synthesize cDNA. Primers corresponding to specific RNA were bound to the synthesized cDNA, and gene amplification was carried out with the thermal cycler. The PCR products were electrophoresed on 1% agarose gel and bands of the respective primers were checked with UV.

For data set [5], the system named is HepG2 cells. Nature of the data set: Western blotting assay. The conditions noted are these: HepG2 cells, 5, 10, 20 μM, 24 h, Western blot. As for the experimental part: Western blotting assay was performed to investigate specific […] expression of HepG2 cells.
HepG2 cells were cultured at a density of 1×10^4 cells/ml in 10 cm^2 culture dishes for 24 h. The cells were then treated with different concentrations (5 μM, 10 μM, 20 μM) of stigmasterol and 5β-hydroxysitostanol for 24 h. The cells were lysed in cell lysis buffer to give protein extract. The extracted protein was separated by molecular weight using SDS electrophoresis. Corresponding antibodies were attached to intended protein and the protein bands were detected with ECL solution using LAS-3000 system.
For orientation: In western blotting, separated proteins are transferred to a membrane and probed.

Like-named read-outs stand apart in the source and are kept apart here.

As to `CCC(CCC(C)C1CCC2C3CCC4(O)CC(O)CCC4(C)C3CCC12C)C(C)C` (stereo not drawn) [5β-hydroxysitostanol], in the data set on HepG2 cells [1], the “G2/M phase of the cell cycle as the concentration increased” value is given as “increased” and the “G2/M phase of the cell cycle” value amounted to 25.83%. Further, in the data set on HepG2 cells [2], the “shape of the attached HepG2 cells” value was “shrinkage”, the “nuclei of the attached HepG2 cells” value was “significantly condensed” and the “number of attached cells (living cells)” value is on record as “remarkably reduced”. In “MTT cell viability assay”, this molecule registered a cytotoxicity at 24 h, 5 μM of approximately 6%; a cytotoxicity at 24 h, 10 μM of approximately 9%; a cytotoxicity at 24 h, 20 μM of approximately 15%. Further, in the data set with HepG2 cells [3], the “cytotoxicity according to concentration” value is on record as “no cytotoxicity” and the “cell viability with increasing concentrations” value was “dose-dependent decrease”. Further, the “expression of caspase-8, Bax and FASL” value in the data set with HepG2 cells [4] is recorded as “upregulates”. Moreover, in the data set on HepG2 cells [5], the “expression of cell apoptosis inducing factors caspase-8, 9” value is “upregulate”.

In the case of `CC[C@H](/C=C/[C@@H](C)[C@H]1CC[C@H]2[C@@H]3CC=C4C[C@@H](O)CC[C@]4(C)[C@H]3CC[C@]12C)C(C)C` [stigmasterol], in the data set with HepG2 cells [1], the “G2/M phase of the cell cycle as the concentration increased” value is recorded as “increased” and the “G2/M phase of the cell cycle” value came to 26.87%. In addition, in the data set on HepG2 cells [2], the “shape of the attached HepG2 cells” value is given as “shrinkage”, the “nuclei of the attached HepG2 cells” value is on record as “significantly condensed” and the “number of attached cells (living cells)” value is recorded as “remarkably reduced”. In addition, in “MTT cell viability assay” (HepG2 cells, 5 μM, 24 h, MTT, read-out: inhibition of cell viability (rate)), the cytotoxicity at 24 h, 5 μM was approximately 40%. The cytotoxicity at 24 h, 10 μM in “MTT cell viability assay” (HepG2 cells, 10 μM, 24 h, MTT, read-out: inhibition of cell viability (rate)) was approximately 43%. For the same molecule, in the data set “MTT cell viability assay” (HepG2 cells, 20 μM, 24 h, MTT, read-out: inhibition of cell viability (rate)), the cytotoxicity at 24 h, 20 μM is approximately 54%. In addition, in the data set with HepG2 cells [3], the “cell viability with increasing concentrations” value is recorded as “dose-dependent decrease”. Besides, in the data set on HepG2 cells [4], the “expression of cell apoptosis inducing factors caspase-8, 9, Bax, p53, p21, FAS and FASL” value is reported as “upregulates”; the “expression of cell apoptosis inhibiting factors Bcl-2 and XIAP” value is recorded as “downregulates”. In addition, in the data set with HepG2 cells [5], the “expression of cell apoptosis inducing factors caspase-8, 9” value is on record as “upregulate”.
